Results taken from article PMC4750701, “Role of Mitochondrial RNA Polymerase in the Toxicity of Nucleotide Inhibitors of Hepatitis C Virus” (Antimicrobial Agents and Chemotherapy, 2016).

Key:
Assay type in all cases: biochemical
recombinant human PolRMT = biological target: T1, recombinant human PolRMT (Homo sapiens, UniProt O00411); assay: Inhibition of PolRMT-catalyzed RNA synthesis; conditions: triphosphate form of the compound tested (Table 4); read-out: Mean IC50 ± SD for PolRMT
T1 construct: purchased Enzymax (Lexington, KY)
T1 sequence (O00411 42-1230): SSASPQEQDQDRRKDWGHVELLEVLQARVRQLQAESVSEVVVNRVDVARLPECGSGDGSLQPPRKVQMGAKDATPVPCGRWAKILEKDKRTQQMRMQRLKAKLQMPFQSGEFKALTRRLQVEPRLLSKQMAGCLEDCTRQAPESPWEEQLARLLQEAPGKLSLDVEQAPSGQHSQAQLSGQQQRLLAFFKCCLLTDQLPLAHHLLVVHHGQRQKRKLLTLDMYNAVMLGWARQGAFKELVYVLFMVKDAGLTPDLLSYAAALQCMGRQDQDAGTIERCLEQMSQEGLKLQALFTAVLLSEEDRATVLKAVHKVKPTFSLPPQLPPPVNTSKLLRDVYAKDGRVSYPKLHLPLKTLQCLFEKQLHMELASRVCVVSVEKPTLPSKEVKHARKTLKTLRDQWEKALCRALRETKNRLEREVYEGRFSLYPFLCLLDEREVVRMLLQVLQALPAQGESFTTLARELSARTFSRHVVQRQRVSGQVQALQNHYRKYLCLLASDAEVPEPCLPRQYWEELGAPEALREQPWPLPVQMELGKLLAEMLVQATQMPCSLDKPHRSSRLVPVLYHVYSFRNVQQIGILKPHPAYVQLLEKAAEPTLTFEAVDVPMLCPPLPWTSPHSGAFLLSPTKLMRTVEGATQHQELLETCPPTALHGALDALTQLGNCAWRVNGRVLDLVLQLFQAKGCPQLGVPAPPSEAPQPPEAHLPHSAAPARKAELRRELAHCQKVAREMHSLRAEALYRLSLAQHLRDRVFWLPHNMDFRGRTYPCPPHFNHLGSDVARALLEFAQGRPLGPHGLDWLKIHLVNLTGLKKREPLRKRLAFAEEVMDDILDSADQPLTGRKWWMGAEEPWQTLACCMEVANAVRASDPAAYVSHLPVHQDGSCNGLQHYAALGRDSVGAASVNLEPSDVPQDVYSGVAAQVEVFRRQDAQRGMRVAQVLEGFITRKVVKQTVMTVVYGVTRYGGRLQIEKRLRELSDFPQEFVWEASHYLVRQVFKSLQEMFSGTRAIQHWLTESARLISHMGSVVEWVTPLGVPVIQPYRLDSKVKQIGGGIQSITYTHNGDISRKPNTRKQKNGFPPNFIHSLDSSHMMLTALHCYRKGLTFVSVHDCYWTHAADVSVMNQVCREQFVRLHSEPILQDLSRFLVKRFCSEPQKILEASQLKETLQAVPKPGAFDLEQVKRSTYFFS
Text: (§1) Activated fish sperm DNA was purchased from USB/Affymetrix (Santa Clara, CA) and used as a template for the DNA polymerases alpha, beta, and gamma. […] The RNA and DNA oligonucleotides used in the mitochondrial RNA polymerase assay (see Table S1 in the supplemental material) were synthesized and PAGE purified by Thermo Scientific/Dharmacon (Lafayette, CO). RNA primer R12 was 5′-^32P-phosphorylated with [γ-^32P]ATP (3,000 Ci/mmol) and T4 kinase (New England BioLabs, Ipswich, MA).
(§2) Human DNA polymerase alpha, isolated from HeLa cell extracts, was from CHIMERx (Madison, WI). Recombinant human DNA polymerase beta, expressed in E. coli, was a gift from Zucai Suo at The Ohio State University. Recombinant human DNA polymerase gamma (including both the large subunit and the small subunit) was cloned, expressed, and purified from insect cells by Gilead Sciences (Foster City, CA) ([13]). RNA PolII was purchased as part of the HeLaScribe nuclear extract in vitro transcription system kit from Promega (Madison, WI). The recombinant human PolRMT and the transcription factors mitochondrial transcription factor A (mtTFA) and B2 (mtTFB2) were purchased from Enzymax (Lexington, KY). FLAG epitope-tagged RNA PolI and PolIII complexes were isolated from rat NSN1 cells and HeLa cells, respectively ([17], [18]). The inhibition of DNA polymerases alpha, beta, and gamma, PolRMT, and PolII and the rate of single-nucleotide incorporation by PolRMT have been described previously in detail ([12], [13], [19]). Inhibition of RNA PolI and PolIII was studied using published methods ([20], [21]). All concentrations were final unless noted otherwise. […] After incubation at 30°C for 20 min to 1 h, the reactions were terminated by pipetting the mixtures onto DEAE-cellulose discs (DE81; Whatman), and the products analyzed as described previously ([20], [21]).

[1] = biological target: T2, Human DNA polymerase alpha (Homo sapiens, UniProt P09884); assay: Inhibition of human DNA polymerase alpha; conditions: triphosphate form of the compound tested; read-out: Mean IC50 ± SD for DNA Pol α
T2 construct: isolated from HeLa cell extracts; purchased CHIMERx (Madison, WI); host or cells: HeLa cell extracts (endogenous enzyme)
T2 sequence (P09884 whole entry): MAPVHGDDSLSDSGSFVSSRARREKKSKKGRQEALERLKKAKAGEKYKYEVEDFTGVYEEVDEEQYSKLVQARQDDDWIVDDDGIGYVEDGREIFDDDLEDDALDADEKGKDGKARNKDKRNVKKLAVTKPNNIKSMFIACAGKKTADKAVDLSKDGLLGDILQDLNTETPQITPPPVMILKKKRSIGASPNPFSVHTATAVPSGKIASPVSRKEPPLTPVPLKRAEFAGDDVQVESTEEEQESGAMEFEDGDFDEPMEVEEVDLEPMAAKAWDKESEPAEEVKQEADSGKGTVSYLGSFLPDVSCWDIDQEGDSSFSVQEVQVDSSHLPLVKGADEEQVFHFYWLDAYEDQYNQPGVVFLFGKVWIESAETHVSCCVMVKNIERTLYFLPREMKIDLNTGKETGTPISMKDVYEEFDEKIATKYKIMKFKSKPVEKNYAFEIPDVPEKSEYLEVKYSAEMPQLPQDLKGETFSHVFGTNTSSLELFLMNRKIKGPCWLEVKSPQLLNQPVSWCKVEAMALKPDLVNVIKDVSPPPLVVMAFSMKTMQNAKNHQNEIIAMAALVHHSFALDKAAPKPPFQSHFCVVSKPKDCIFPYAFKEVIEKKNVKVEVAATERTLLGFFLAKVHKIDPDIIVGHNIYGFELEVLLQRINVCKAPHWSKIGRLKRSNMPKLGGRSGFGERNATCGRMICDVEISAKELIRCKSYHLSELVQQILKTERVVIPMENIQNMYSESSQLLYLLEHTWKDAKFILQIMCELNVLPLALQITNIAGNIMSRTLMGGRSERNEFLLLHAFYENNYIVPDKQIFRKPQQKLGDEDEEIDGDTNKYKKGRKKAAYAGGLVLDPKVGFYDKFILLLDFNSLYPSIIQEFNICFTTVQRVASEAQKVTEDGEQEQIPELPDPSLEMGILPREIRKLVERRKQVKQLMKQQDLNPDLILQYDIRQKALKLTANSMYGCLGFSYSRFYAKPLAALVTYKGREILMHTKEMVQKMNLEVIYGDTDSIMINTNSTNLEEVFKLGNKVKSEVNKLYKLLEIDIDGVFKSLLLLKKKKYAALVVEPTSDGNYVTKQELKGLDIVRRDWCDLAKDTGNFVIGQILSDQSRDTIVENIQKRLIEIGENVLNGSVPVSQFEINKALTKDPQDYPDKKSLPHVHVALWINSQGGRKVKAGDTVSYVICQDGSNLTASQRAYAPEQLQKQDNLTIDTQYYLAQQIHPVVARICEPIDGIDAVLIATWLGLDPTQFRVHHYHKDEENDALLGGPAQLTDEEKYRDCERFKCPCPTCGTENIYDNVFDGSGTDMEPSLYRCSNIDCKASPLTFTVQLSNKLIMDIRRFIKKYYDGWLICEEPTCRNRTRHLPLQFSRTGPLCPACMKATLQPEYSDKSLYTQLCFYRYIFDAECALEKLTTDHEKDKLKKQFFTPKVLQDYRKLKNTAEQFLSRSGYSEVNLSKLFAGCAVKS
T2 sequence (Q14181 whole entry partner): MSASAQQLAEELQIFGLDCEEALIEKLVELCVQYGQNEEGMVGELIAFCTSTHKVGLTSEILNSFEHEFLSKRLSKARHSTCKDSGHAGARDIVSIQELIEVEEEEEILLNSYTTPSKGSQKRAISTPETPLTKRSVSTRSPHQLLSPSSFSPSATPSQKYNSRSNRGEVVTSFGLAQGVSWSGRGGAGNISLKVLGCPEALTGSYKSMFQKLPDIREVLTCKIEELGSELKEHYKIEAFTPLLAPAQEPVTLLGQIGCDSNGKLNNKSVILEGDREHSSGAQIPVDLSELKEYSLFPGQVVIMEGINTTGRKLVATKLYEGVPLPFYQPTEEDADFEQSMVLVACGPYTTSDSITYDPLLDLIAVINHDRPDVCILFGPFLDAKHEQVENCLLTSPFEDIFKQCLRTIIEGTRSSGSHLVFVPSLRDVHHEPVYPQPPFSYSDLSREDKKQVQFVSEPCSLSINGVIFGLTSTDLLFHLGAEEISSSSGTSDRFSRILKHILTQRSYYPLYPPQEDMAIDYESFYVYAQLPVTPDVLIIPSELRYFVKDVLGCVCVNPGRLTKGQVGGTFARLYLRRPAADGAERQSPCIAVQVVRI
T2 sequence (P49642 whole entry partner): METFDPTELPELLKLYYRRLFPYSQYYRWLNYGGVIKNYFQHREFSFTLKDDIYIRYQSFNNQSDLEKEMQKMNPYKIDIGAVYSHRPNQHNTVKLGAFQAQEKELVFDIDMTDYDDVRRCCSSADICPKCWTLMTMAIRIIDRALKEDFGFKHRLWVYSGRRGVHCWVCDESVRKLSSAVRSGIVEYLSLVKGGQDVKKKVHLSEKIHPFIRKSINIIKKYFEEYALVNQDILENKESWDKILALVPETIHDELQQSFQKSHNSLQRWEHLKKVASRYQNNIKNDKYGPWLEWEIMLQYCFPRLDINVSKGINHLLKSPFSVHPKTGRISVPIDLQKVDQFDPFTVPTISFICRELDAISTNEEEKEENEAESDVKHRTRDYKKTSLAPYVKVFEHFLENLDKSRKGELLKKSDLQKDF
T2 sequence (P49643 whole entry partner): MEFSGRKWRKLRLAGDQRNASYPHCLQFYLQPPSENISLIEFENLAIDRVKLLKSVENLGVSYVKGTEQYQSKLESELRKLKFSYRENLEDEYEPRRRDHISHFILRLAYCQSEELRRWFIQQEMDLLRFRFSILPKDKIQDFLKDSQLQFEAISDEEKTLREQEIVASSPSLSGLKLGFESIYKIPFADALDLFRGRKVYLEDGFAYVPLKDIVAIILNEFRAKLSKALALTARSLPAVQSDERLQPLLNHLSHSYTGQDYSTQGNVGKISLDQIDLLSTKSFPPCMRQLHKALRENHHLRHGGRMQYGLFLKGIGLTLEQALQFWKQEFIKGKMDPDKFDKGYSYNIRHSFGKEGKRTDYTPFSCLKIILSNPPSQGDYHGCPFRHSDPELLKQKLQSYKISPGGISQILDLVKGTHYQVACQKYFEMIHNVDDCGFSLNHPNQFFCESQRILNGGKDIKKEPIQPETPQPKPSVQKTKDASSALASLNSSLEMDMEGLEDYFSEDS
Text: as §1, §2

[2] = biological target: T3, Recombinant human DNA polymerase beta (Homo sapiens, UniProt P06746); assay: Inhibition of human DNA polymerase beta; conditions: triphosphate form of the compound tested; read-out: Mean IC50 ± SD for DNA Pol β
T3 construct: host or cells: E. coli
Text: Activated fish sperm DNA was purchased from USB/Affymetrix (Santa Clara, CA) and used as a template for the DNA polymerases alpha, beta, and gamma. The DNA template used in the RNA Pol II assay was a 1,188-bp restriction fragment containing the cytomegalovirus (CMV) immediate early promoter (Promega, Madison, WI). The RNA and DNA oligonucleotides used in the mitochondrial RNA polymerase assay (see Table S1 in the supplemental material) were synthesized and PAGE purified by Thermo Scientific/Dharmacon (Lafayette, CO). RNA primer R12 was 5′-^32P-phosphorylated with [γ-^32P]ATP (3,000 Ci/mmol) and T4 kinase (New England BioLabs, Ipswich, MA).
as §2, with “otherwise. For the RNA PolI inhibition assay, a reaction mixture containing 50 mM HEPES (pH 7.9), 20% glycerol, 100 mM KCl, 1 mM dithiothreitol (DTT), 50 μg/ml calf thymus DNA, 4 mM MgCl2, 5 or 80 μM UTP (0.25 μl of [5,6-^3H]UTP, >25 Ci/mmol; PerkinElmer), 1 mM noncompeting NTP, competing NTP (5 μM for GTP, CTP, and UTP and 25 μM for ATP), and various concentrations (0 to 500 μM) of NTP analogs was preincubated at 30°C for 5 min.” for “otherwise.”

Row | SMILES | IC50 (recombinant human PolRMT) | IC50 [1] | IC50 [2]
1 | C[C@@]1(O)[C@H](O)[C@@H](CO)O[C@H]1n1ccc(N)nc1=O [2′CMeC, 2′-C-methyl (2′CMe) cytidine] | 230 ± 90 µM | > 200 µM | > 200 µM
2 | C[C@@]1(O)[C@H](O)[C@@H](COP(=O)(O)OP(=O)(O)OP(=O)(O)O)O[C@H]1n1cnc2c(=O)[nH]c(N)nc21 [2′CMeGTP] | – | > 200 µM | > 200 µM
3 | [N-]=[N+]=N[C@]1(CO)O[C@@H](n2ccc(N)nc2=O)[C@H](O)[C@@H]1O [4′-AzidoC, 4′-azido cytidine] | 3.8 ± 2 µM | > 200 µM | > 200 µM
4 | COc1nc(N)nc2c1ncn2[C@@H]1O[C@H](COP(=O)(N[C@@H](C)C(=O)OCC(C)(C)C)Oc2cccc3ccccc23)[C@@H](O)[C@@]1(C)O (stereo partly drawn) [BMS-986094] | 52 µM | – | –
5 | CC(C)OC(=O)[C@H](C)N[P@](=O)(OC[C@H]1O[C@@](C#N)(c2ccc3c(N)ncnn23)[C@](C)(O)[C@@H]1OC(=O)C(C)C)Oc1ccccc1 [GS-6620] | > 500 µM | > 200 µM | > 200 µM
6 | CCOc1nc(N)nc2c1ncn2[C@@H]1O[C@@H]2COP(=O)(OC(C)C)O[C@H]2[C@@]1(C)F (stereo partly drawn) [PSI-938] | > 500 µM | > 200 µM | > 200 µM
7 | C[C@@]1(F)[C@H](O)[C@@H](CO)O[C@H]1n1ccc(N)nc1=O [PSI-6130] | > 500 µM | > 200 µM | > 200 µM
8 | CC(C)OC(=O)[C@H](C)N[P@](=O)(OC[C@H]1O[C@@H](n2ccc(=O)[nH]c2=O)[C@](C)(F)[C@@H]1O)Oc1ccccc1 [Sofosbuvir] | > 500 µM | > 200 µM | > 200 µM
